# Reference: patent US20240358693A1, “METHODS OF TREATING PAIN” (Aisa Pharma, Inc., priority 2023, published 2024)
# System: participants with SSc-RP
# Experiment: Average severity of weekly RP attacks (VAS 0-10 cm scale)
# Type: in vivo, human
# From the text: The absolute change in average severity of weekly RP attacks (VAS 0-10 cm scale) from baseline to the end of each Dosing Period was and will be a secondary outcome variable. The sponsor-developed participant-informed diary will be used to record data. Average severity of weekly RP attacks is defined as the total severity scores of RP attacks divided by total number of RP attacks within the last 7 days of each dosing period. Total severity scores of RP attacks during the last 7 days of screening period divided by the total number of RP attacks will be used as baseline for the analysis of all periods. The variable will be calculated similar to frequency data as before.
# [1] = Cilnidipine 10 mg, n=1, Excluding Outliers, ITT Population - Part A
# [2] = Cilnidipine 10 mg, n=1, ITT Population - Part A
# [3] = Cilnidipine 10 mg, n=1, by Baseline RCS, first subgroup, ITT Population - Part A
# [4] = Cilnidipine 10 mg, Excluding Outliers, ITT Population - Part A
# [5] = Cilnidipine 10 mg, Excluding Outliers, by Baseline RCS, first subgroup, ITT Population - Part A
# [6] = Cilnidipine 10 mg, ITT Population - Part A
# [7] = Cilnidipine 10 mg, first Baseline RCS subgroup block (not named), ITT Part A
# [8] = Cilnidipine 10 mg, first Baseline RCS subgroup block (not named), ITT Part A, score 0-10
# [9] = Cilnidipine 20 mg, n=2, Excluding Outliers, ITT Population - Part A
# [10] = Cilnidipine 20 mg, n=2, ITT Population - Part A
# [11] = Cilnidipine 20 mg, n=2, by Baseline RCS, first subgroup, ITT Population - Part A
# [12] = Cilnidipine 20 mg, Excluding Outliers, ITT Population - Part A
# [13] = Cilnidipine 20 mg, Excluding Outliers, by Baseline RCS, first subgroup, ITT Population - Part A
structure (smiles),measurement,setting,value
"COCCOC(=O)C1=C(C)NC(C)=C(C(=O)OC/C=C/c2ccccc2)C1c1cccc([N+](=O)[O-])c1 (stereo not shown) [Cilnidipine, cilnidipine]","Average Severity (0-10) of Weekly Symptomatic RP Attacks, Mean",[1],3.77
same,"Average Severity (0-10) of Weekly Symptomatic RP Attacks, Median",[1],3.77
same,"Average Severity of Weekly Symptomatic RP Attacks, Change from Baseline, Mean",[1],0.28
same,"Average Severity of Weekly Symptomatic RP Attacks, Change from Baseline, Median",[1],0.28
same,"Average Severity of Weekly Symptomatic RP Attacks, Percent Change from Baseline, Mean",[1],8.05%
same,"Average Severity of Weekly Symptomatic RP Attacks, Percent Change from Baseline, Median",[1],8.05%
same,"Average Severity (0-10) of Weekly Symptomatic RP Attacks, Mean",[2],3.77
same,"Average Severity (0-10) of Weekly Symptomatic RP Attacks, Median",[2],3.77
same,"Average Severity of Weekly Symptomatic RP Attacks, Change from Baseline, Mean",[2],0.28
same,"Average Severity of Weekly Symptomatic RP Attacks, Change from Baseline, Median",[2],0.28
same,"Average Severity of Weekly Symptomatic RP Attacks, Percent Change from Baseline, Mean",[2],8.05%
same,"Average Severity of Weekly Symptomatic RP Attacks, Percent Change from Baseline, Median",[2],8.05%
same,"Average Severity (0-10) of Weekly Symptomatic RP Attacks, Mean",[3],3.77
same,"Average Severity (0-10) of Weekly Symptomatic RP Attacks, Median",[3],3.77
same,"Average Severity of Weekly Symptomatic RP Attacks, Change from Baseline, Mean",[3],0.28
same,"Average Severity of Weekly Symptomatic RP Attacks, Change from Baseline, Median",[3],0.28
same,"Average Severity of Weekly Symptomatic RP Attacks, Percent Change from Baseline, Mean",[3],8.05%
same,"Average Severity of Weekly Symptomatic RP Attacks, Percent Change from Baseline, Median",[3],8.05%
same,"Average Severity of Weekly RP Attacks (All Attacks), Change from Baseline, Mean",[4],0.02
same,"Average Severity of Weekly RP Attacks (All Attacks), Change from Baseline, Median",[4],0.02
same,"Average Severity of Weekly RP Attacks (All Attacks), Mean",[4],3.05
same,"Average Severity of Weekly RP Attacks (All Attacks), Median",[4],3.05
same,"Average Severity of Weekly RP Attacks (All Attacks), Percent Change from Baseline, Mean",[4],0.55%
same,"Average Severity of Weekly RP Attacks (All Attacks), Percent Change from Baseline, Median",[4],0.55%
same,Average Severity of Weekly Symptomatic RP Attacks (Mean),[5],3.77
same,Average Severity of Weekly Symptomatic RP Attacks (Median),[5],3.77
same,"Average Severity of Weekly Symptomatic RP Attacks, Change from Baseline, Mean",[5],0.28
same,"Average Severity of Weekly Symptomatic RP Attacks, Change from Baseline, Median",[5],0.28
same,"Average Severity of Weekly Symptomatic RP Attacks, Percent Change from Baseline, Mean",[5],8.05%
same,"Average Severity of Weekly Symptomatic RP Attacks, Percent Change from Baseline, Median",[5],8.05%
same,"Average Severity of Weekly RP Attacks (All Attacks), Change from Baseline, Mean",[6],0.02
same,"Average Severity of Weekly RP Attacks (All Attacks), Change from Baseline, Median",[6],0.02
same,"Average Severity of Weekly RP Attacks (All Attacks), Mean",[6],3.05
same,"Average Severity of Weekly RP Attacks (All Attacks), Median",[6],3.05
same,"Average Severity of Weekly RP Attacks (All Attacks), Percent Change from Baseline, Mean",[6],0.55%
same,"Average Severity of Weekly RP Attacks (All Attacks), Percent Change from Baseline, Median",[6],0.55%
same,"Average Severity of Weekly RP Attacks (All Attacks), Percent Change from Baseline, Mean",[7],0.55%
same,"Average Severity of Weekly RP Attacks (All Attacks), Percent Change from Baseline, Median",[7],0.55%
same,"Average Severity of Weekly RP Attacks (All Attacks), Change from Baseline, Mean",[8],0.02
same,"Average Severity of Weekly RP Attacks (All Attacks), Change from Baseline, Median",[8],0.02
same,"Average Severity of Weekly RP Attacks (All Attacks), Mean",[8],3.05
same,"Average Severity of Weekly RP Attacks (All Attacks), Median",[8],3.05
same,"Average Severity (0-10) of Weekly Symptomatic RP Attacks, Mean",[9],2.30
same,"Average Severity (0-10) of Weekly Symptomatic RP Attacks, Median",[9],2.30
same,"Average Severity of Weekly Symptomatic RP Attacks, Change from Baseline, Mean",[9],−1.44
same,"Average Severity of Weekly Symptomatic RP Attacks, Change from Baseline, Median",[9],−1.44
same,"Average Severity of Weekly Symptomatic RP Attacks, Percent Change from Baseline, Mean",[9],−32.85%
same,"Average Severity of Weekly Symptomatic RP Attacks, Percent Change from Baseline, Median",[9],−32.85%
same,"Average Severity (0-10) of Weekly Symptomatic RP Attacks, Mean",[10],2.30
same,"Average Severity (0-10) of Weekly Symptomatic RP Attacks, Median",[10],2.30
same,"Average Severity of Weekly Symptomatic RP Attacks, Change from Baseline, Mean",[10],−1.44
same,"Average Severity of Weekly Symptomatic RP Attacks, Change from Baseline, Median",[10],−1.44
same,"Average Severity of Weekly Symptomatic RP Attacks, Percent Change from Baseline, Mean",[10],−32.85%
same,"Average Severity of Weekly Symptomatic RP Attacks, Percent Change from Baseline, Median",[10],−32.85%
same,"Average Severity (0-10) of Weekly Symptomatic RP Attacks, Mean",[11],2.30
same,"Average Severity (0-10) of Weekly Symptomatic RP Attacks, Median",[11],2.30
same,"Average Severity of Weekly Symptomatic RP Attacks, Change from Baseline, Mean",[11],−1.44
same,"Average Severity of Weekly Symptomatic RP Attacks, Change from Baseline, Median",[11],−1.44
same,"Average Severity of Weekly Symptomatic RP Attacks, Percent Change from Baseline, Mean",[11],−32.85%
same,"Average Severity of Weekly Symptomatic RP Attacks, Percent Change from Baseline, Median",[11],−32.85%
same,"Average Severity of Weekly RP Attacks (All Attacks), Change from Baseline, Mean",[12],−1.07
same,"Average Severity of Weekly RP Attacks (All Attacks), Change from Baseline, Median",[12],−1.07
same,"Average Severity of Weekly RP Attacks (All Attacks), Mean",[12],2.30
same,"Average Severity of Weekly RP Attacks (All Attacks), Median",[12],2.30
same,"Average Severity of Weekly RP Attacks (All Attacks), Percent Change from Baseline, Mean",[12],−27.26%
same,"Average Severity of Weekly RP Attacks (All Attacks), Percent Change from Baseline, Median",[12],−27.26%
same,Average Severity of Weekly Symptomatic RP Attacks (Mean),[13],2.30
same,Average Severity of Weekly Symptomatic RP Attacks (Median),[13],2.30
same,"Average Severity of Weekly Symptomatic RP Attacks, Change from Baseline, Mean",[13],−1.44
same,"Average Severity of Weekly Symptomatic RP Attacks, Change from Baseline, Median",[13],−1.44
same,"Average Severity of Weekly Symptomatic RP Attacks, Percent Change from Baseline, Mean",[13],−32.85%
same,"Average Severity of Weekly Symptomatic RP Attacks, Percent Change from Baseline, Median",[13],−32.85%
same,"Average Severity of Weekly RP Attacks (All Attacks), Change from Baseline, Mean","Cilnidipine 20 mg, ITT Population - Part A",−1.07
